From PubChem BioAssay (NCI) come the findings set out here.

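Cultured in 96-well plates, cells were exposed to test compound for 48 hours across five concentrations. GI50 is the concentration that inhibits growth by half. At the TGI there is no net growth.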 Where only a bound is given, the exact number is not on record here.

Holding throughout (assay): NCI anticancer screen, dose series, 48 h
Assay [1] deals with A549 NSCLC.
Assay [2] relates to COLO 205 colon.
The test system of assay [3] is HCT-15 colon.
The test system of assay [4] is HL-60(TB) leukemia.
Assay [5] deals with HOP-92 NSCLC.
Assay [6] relates to IGROV1 ovarian.
In assay [7] the test system is K-562 leukemia.
For assay [8], the system named is KM12 colon.
Assay [9] concerns SK-MEL-5 melanoma.
The subject of assay [10] is U251 CNS.

Turning to `CC1=CC(=O)C(C(C)=Nc2ccccc2Cl)C(=O)O1` (stereo not given), the GI50 is over 100000 nM in assay [1]; over 100 µM in assay [2]; over 100000 nM in [3]; over 100000 nM in [4]; 94.4 µM in assay [5]; 76200 nM in assay [6]. The GI50 in assay [7], in assay [8], in [9] and in assay [10] was over 100000 nM each time. The TGI in [1], in [2], in assay [3], in [4], in [5] and in assay [6] was over 100 µM throughout. The TGI in [7], in [8], in [9] and in [10] was over 100 µM each time.

Take `COc1cc(/C=C(/c2ccccc2)[N+](=O)[O-])c(OC)c2c1OCO2`: the GI50 in [1] was 2100 nM; in [2], 1.98 µM; in [3], 389 nM; in assay [4] it was 1790 nM; in assay [5], 1.48 µM; in assay [6], 1160 nM. For the same compound, the GI50 in assay [7] is 373 nM; in assay [8] it was 1840 nM; in assay [9], 1750 nM; in assay [10], 1520 nM. Moreover, the TGI stood at 5.03 µM in assay [1]; 4.25 µM in assay [2]; 1.6 µM in [3]; 5.64 µM in assay [4]; 3.2 µM in assay [5]; 2.6 µM in assay [6]. In addition, the TGI in [7] was 13.7 µM; in [8], 3.44 µM; in [9] it was 3.14 µM; in [10], 3.05 µM.

With `CCSc1nc(COC(=O)NC)c(COC(=O)NC)n1C`, the TGI in assay [1] is over 100 µM; in [2] it was over 85.1 µM; in [3], over 100 µM; in [4] it was over 100 µM; in assay [5], over 90.6 µM; in assay [6], over 93.1 µM. Besides, the TGI in [7] was over 68.1 µM; in assay [8], over 100 µM; in [9] it was over 100 µM; in assay [10] it was over 100 µM.

`O=C(O)CCC1CCc2cccc3occ1c23` (stereo not given): the TGI in assay [1], in assay [2], in assay [3], in [4], in assay [5] and in assay [6] was over 100 µM in each case. The TGI in assay [7], in assay [8], in [9] and in [10] was over 100 µM in each case.

On to `CC(=O)Oc1ccccc1C(=O)C1c2cccc(O)c2C(=O)c2c(O)cccc21`, for which the TGI in assay [1] turned out to be 2.86 µM; in assay [2] it was 1.86 µM; in assay [3], 9.56 µM; in assay [4] it was 0.727 µM; in [5] it was 3.76 µM; in assay [6] it was 2.85 µM. For the same compound, the TGI in [7] is over 100 µM; in assay [8], 1.59 µM; in assay [9] it was 2.4 µM; in assay [10], 1.99 µM.

`C/C1=C\CC[C@@](C)(O)[C@@H]2CC3[C@@H](OC(=O)C34CC4)[C@@H](O2)[C@H](C)CCC1` (stereo not given in full): the GI50 in assay [1] is 24500 nM; in assay [2], 24.2 µM; in [3] it was 23700 nM; in assay [4] it was 42400 nM; in assay [5], 38.9 µM; in assay [6], 6480 nM. The GI50 was 35100 nM in [7], 21600 nM in assay [8], 10600 nM in [9] and 19900 nM in assay [10]. The TGI in assay [1] was 77.6 µM; in assay [2] it was 63.6 µM; in [3], 58 µM; in assay [4], over 100 µM; in assay [5], over 100 µM; in assay [6], 24.1 µM. In addition, the TGI in [7] is over 100 µM; in assay [8], 62.2 µM; in [9] it was 30.7 µM; in [10] it was 42.7 µM.

In the case of `COC1CC(n2cnc3c(N)ncnc32)OC1CO` (stereo not given), the TGI in assay [1], in assay [2], in [3], in assay [4], in assay [5] and in assay [6] was over 100 µM throughout. Further, the TGI in assay [7], in assay [8], in assay [9] and in [10] was over 100 µM throughout.

Regarding `Cn1cc(-c2ccc(CNc3cc(-c4cnc5cc(OCCCN6CCCC6)ccn45)ncn3)cc2)cn1`, the GI50 was 1730 nM in assay [1]; 10.6 µM in assay [2]; 2810 nM in assay [3]; 2310 nM in assay [4]; 3.89 µM in [5]; 2050 nM in [6]. Moreover, the GI50 in assay [7] is 2620 nM; in assay [8], 1860 nM; in assay [9], 1510 nM; in assay [10], 1430 nM. The TGI in assay [1] was found to be 3.49 µM; in assay [2] it was 25.9 µM; in [3], 12 µM; in assay [4], 6.94 µM; in assay [5], 22.2 µM; in [6] it was 4.27 µM. For the same compound, the TGI in [7] is over 100 µM; in [8], 3.68 µM; in [9], 2.85 µM; in assay [10], 2.77 µM.

With `O=C(Nc1ccc2c(c1)oc(=O)c1ccccc12)C(Cl)Cl`, the TGI in assay [1] is over 100 µM; in assay [2] it was over 100 µM; in assay [3], over 100 µM; in assay [4], 25.5 µM; in assay [5], over 100 µM; in [6] it was over 100 µM. Also, the TGI in [7], in assay [8], in assay [9] and in [10] was over 100 µM each time.

Turning to `O=c1oc2ccc(Cl)cc2c(=O)n1-c1ccc(I)cc1F`, the GI50 was 1010 nM in assay [1]; 7 µM in assay [2]; 231 nM in [3]; 286 nM in assay [4]; 0.0571 µM in [5]; 190 nM in [6]. Also, the GI50 in [7] is 176 nM; in assay [8] it was 2210 nM; in [9], 95 nM; in [10], 262 nM. The TGI in assay [1] was over 100 µM; in assay [2], 19.7 µM; in [3], 6.74 µM; in assay [4], 1.36 µM; in assay [5] it was 0.202 µM; in assay [6], over 42.3 µM. In addition, the TGI is over 100 µM in assay [7], 5.55 µM in [8], 0.279 µM in assay [9] and over 35.6 µM in [10].
